The record followed here is ChEMBL document CHEMBL5604062, “ASAP - ZIKV NS2B-NS3 protease fluorescence dose response” (2024).

Broadly, the IC50 is the midpoint of a concentration-inhibition curve. High values mean a need for much substance, low ones inhibition by little substance.

The experiment has as its target Nonstructural protein 3 (Zika virus, UniProt A0A024AXB9). The experiment can be described thus: Functional biochemical assay to identify treatments for viral infectious disease that targets Zika NS2B-NS3 protease. Utilizing a direct enzyme activity measurement method, reading the fluorescence intensity is used to characterize the relative potency of inhibitors as IC50. Set-up: species or system PRVABC59.

Sequence of Nonstructural protein 3 (A0A024AXB9 whole entry): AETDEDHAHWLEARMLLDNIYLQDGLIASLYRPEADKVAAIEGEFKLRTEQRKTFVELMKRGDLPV

Consider `CC(C)c1noc2nc(C3CC3)cc(C(=O)Nc3cccc(CN)c3)c12`, for which the IC50 was greater than 99.5 µM.
Compound `NCc1ccc(NS(=O)(=O)c2ccc(Oc3ccccc3Cl)cc2)cc1` had an IC50 greater than 99.5 µM.
With `CC(C)c1ncc(OC2CCC2)c(C(=O)Nc2cccc(CN)c2)n1` the figure was greater than 99.5 µM; with `COc1ccc(F)cc1-c1ccc(S(=O)(=O)Nc2ccc(Cl)cc2C(N)=O)cc1`, 73.2 µM.
For the compound `Cc1c(CN)cccc1NS(=O)(=O)c1ccc(Oc2ccccc2Cl)cc1`, the IC50 was greater than 99.5 µM.
Consider `N[C@H]1CCc2ncc(NS(=O)(=O)c3ccc(Oc4ccccc4Cl)cc3)cc2C1`, for which the IC50 is greater than 99.5 µM.
`O=C(Nc1cc(Cl)cc(C(=O)Nc2cccc([C@H]3CCCCN3)c2)c1)OCc1ccccc1` showed a half-maximal inhibitory concentration (IC50) of 57.8 µM.
With `Cc1cc(=O)c(C(=O)Nc2cccc(CN)c2)nn1-c1ccccc1C(F)(F)F` the figure was greater than 99.5 µM.
`C[C@H]1CCN1C(=O)Cn1ccnc(N2CC[C@H](CO)C2)c1=O` yielded a half-maximal inhibitory concentration (IC50) greater than 99.5 µM.
`NCc1ccncc1NS(=O)(=O)c1ccc(Oc2ccccc2Cl)cc1` registered a 50% inhibitory concentration (IC50) of 94.2 µM.
Consider `NCc1cccc(NC(=O)c2cc(C3CCCCC3)nc3ccc(F)cc23)c1`, for which the IC50 was greater than 99.5 µM.
The compound `NCc1cccc(NC(=O)c2cccc(Oc3ccc(Cl)c(Cl)c3)n2)c1` yielded a half-maximal inhibitory concentration (IC50) of 39.4 µM.
`NCc1cccc(NC(=O)c2cc(C3CC3)nc3c(Cl)cnn23)c1` displayed an IC50 greater than 99.5 µM.
In the case of `NCc1cccc(NC(=O)c2cccn3cc(CN4CCCC4)nc23)c1` it was 16.4 µM; in that of `CC(C)Oc1cc(CN)ccc1NS(=O)(=O)c1ccc(Oc2ccccc2Cl)cc1`, 64.4 µM; in that of `NCc1cccc(NC(=O)Cc2cccc(Oc3ccncc3Br)c2)c1`, greater than 99.5 µM.
In the case of `O=C(Nc1cc(Cl)cc(C(=O)Nc2ccnc(OC3CNC3)c2)c1)OCc1ccccc1` it was 66.1 µM; in that of `CN1CCC[C@H]1COc1ccc([C@@H](NC(=O)OCc2ccccc2)C(=O)Nc2cccc(CN)c2)cc1`, greater than 99.5 µM.
Compound `NCc1cccc(NC(=O)c2cccc3c2O[C@H](c2ccccc2)C(=O)N3)c1` came in with a 50% inhibitory concentration (IC50) of 56.4 µM.
With `NCc1cccc(NC(=O)c2cc(C(F)(F)F)ccc2SC2CCCC2)c1` the figure was 84.3 µM.
In turn, `Cc1ccc(NS(=O)(=O)c2ccc(Oc3ccccc3Cl)cc2)cc1CN` gave an IC50 greater than 99.5 µM.
In turn, `CCOc1cccc(-c2ccc(S(=O)(=O)Nc3cc4c(cc3C(=O)O)CCC4)cc2)c1` had an IC50 of 14.2 µM.
With `Cc1ccc(Sc2ncccc2C(=O)Nc2cccc(CN)c2)cc1C`, the IC50 was greater than 99.5 µM.
With `COCCN(C)C(=O)Cn1ccnc(N2CC[C@@H](CO)C2)c1=O` the figure was greater than 99.5 µM.
With `NCc1cccc(NC(=O)[C@H](NC(=O)OCc2ccccc2)C2CCN(C(=O)Cn3ccnc3)CC2)c1` the figure was greater than 99.5 µM; with `CC(C)c1nn(-c2ccccc2)cc1C(=O)Nc1cccc(CN)c1`, greater than 99.5 µM; with `NC(=O)c1cc(Cl)ccc1NS(=O)(=O)c1ccc(-c2ccc(F)cc2)cc1`, 65.6 µM.
In the case of `NCc1cccc(NC(=O)c2cc(C3CC3)n3nccc3n2)c1` it was greater than 99.5 µM; in that of `CC[C@H](CO)NC(=O)Cn1ccnc(N2CC[C@H](CO)C2)c1=O`, greater than 99.5 µM; in that of `CC[C@H](C(=O)Nc1cccc(CN)c1)n1cc(Br)c(C(F)(F)F)n1`, greater than 99.5 µM.
For the compound `CC(C)(C)OC(=O)NCc1cc(Cl)cc(C(=O)O)c1`, the IC50 is greater than 99.5 µM.
In the case of `O=C1Nc2ccccc2[C@H]1N1CCC(c2nc3ccccc3s2)CC1` it was greater than 99.5 µM; in that of `CCc1onc(-c2ccc(Br)cc2)c1C(=O)Nc1cccc(CN)c1`, greater than 99.5 µM.
With `O=C(Nc1cc(Cl)cc(C(=O)NCC[C@H]2COCCN2)c1)OCc1ccccc1` the figure was greater than 99.5 µM; with `CC(C)(C)Cn1c(=O)[nH]c2cccc(C(=O)Nc3cccc(CN)c3)c21`, 37.2 µM.
With `CC(C)(C)NS(=O)(=O)c1cccc(C(=O)Nc2cccc(CN)c2)c1`, the IC50 is greater than 99.5 µM.
In the case of `O=C(Nc1cc(Cl)cc(C(=O)Nc2cccc([C@H]3CCCN3)c2)c1)OCc1ccccc1` it was 27.6 µM; in that of `Cn1nc(C2CC2)c2c(C(=O)Nc3cccc(CN)c3)cc(C3CC3)nc21`, greater than 99.5 µM; in that of `COCCCC(=O)N1CCC([C@H](NC(=O)OCc2ccccc2)C(=O)Nc2cccc(CN)c2)CC1`, greater than 99.5 µM.
In the case of `NCc1cccc(NC(=O)c2cc(C3CC3)nn2-c2ccccc2)c1`, the IC50 was greater than 99.5 µM.
`CC(C)(C#N)c1cc(C(=O)Nc2cccc(CN)c2)cc(C(F)(F)F)c1`: the IC50 is greater than 99.5 µM.
Consider `CCCn1nc(C)c2c(C(=O)Nc3cccc(CN)c3)cc(C)nc21`, for which the IC50 was greater than 99.5 µM.
Compound `CCC1CN(C(=O)Cn2ccnc(N3CC[C@@H](CO)C3)c2=O)C1` displayed an IC50 greater than 99.5 µM.
`NCc1cccc(NC(=O)c2ccc(=O)n(Cc3ccccc3Cl)c2)c1`: the IC50 was greater than 99.5 µM.
In the case of `C#Cc1cc(CN)ccc1NS(=O)(=O)c1ccc(Oc2ccccc2Cl)cc1` it was greater than 99.5 µM.
As for `Cc1ccc(S(=O)(=O)N2CCC([C@@H](NC(=O)OCc3ccccc3)C(=O)Nc3cccc(CN)c3)CC2)c(C)c1`, the midpoint of inhibition, the IC50, lay at 71.9 µM.
Take `O=C(Cn1ccnc(N2CC[C@H](CO)C2)c1=O)NCc1cc[nH]n1`: the IC50 was greater than 99.5 µM.
`Cc1ccc(C(=O)Nc2cccc(CN)c2)cc1NC(=O)Cc1ccncc1` came in with an IC50 greater than 99.5 µM.
Compound `c1cncc(-c2cccc(NCc3c[nH]c4ccccc34)c2)c1` had an IC50 greater than 99.5 µM.
As to `NCc1cccc(NC(=O)c2nn(-c3ccccc3F)cc2Br)c1`, the IC50 is greater than 99.5 µM.
`NCc1cccc(NC(=O)c2cc(C(F)(F)F)nn2CC2CCC2)c1` had an IC50 greater than 99.5 µM.
In the case of `C[C@H]1CCCCN1C(=O)Cn1ccnc(N2CC[C@@H](CO)C2)c1=O` it was greater than 99.5 µM.
For `NCc1cccc(NC(=O)c2cc(C3CC3)n3nc(C(F)(F)F)cc3n2)c1`, the half-inhibitory concentration (IC50) was greater than 99.5 µM.
The compound `O=C(O)c1cc(Cl)cc(NS(=O)(=O)c2ccc(-c3ccc(F)cc3)cc2)c1` registered an IC50 of 75.7 µM.
`NCc1cccc(NC(=O)c2c(C(F)F)nc3cnccn23)c1` displayed a concentration for half-maximal inhibition (IC50) greater than 99.5 µM.
On to `CNC(=O)CN1CCC([C@@H](NC(=O)OCc2ccccc2)C(=O)Nc2cccc(CN)c2)CC1`, for which the IC50 is greater than 99.5 µM.
In the case of `Cc1ccc(NC(=O)c2cc(Cl)ccc2Cl)c(C(=O)Nc2cccc(CN)c2)c1`, half-maximal inhibition (IC50) required 53.9 µM.
With `O=c1[nH]c2cccc(N3CCN(Cc4c[nH]c5ccccc45)CC3)c2o1` the figure was greater than 99.5 µM; with `CN(c1ccc(Oc2ccccc2Cl)cc1)S(=O)(=O)c1cc(F)c(Cl)cc1C(=O)O`, greater than 99.5 µM.
With `c1ccc2c(CNC3CCN(Cc4cscn4)CC3)c[nH]c2c1` the figure was greater than 99.5 µM.
`CCCCCn1cc(C(=O)Nc2cccc(CN)c2)c2ccccc21` showed an IC50 of 70.4 µM.
With `Cc1ccc(-n2nc(C(=O)Nc3cccc(CN)c3)ccc2=O)cc1Cl`, the IC50 was greater than 99.5 µM.
With `Cc1cc(C(=O)Nc2cccc(CN)c2)nc2c(C(C)C)cnn12` the figure was greater than 99.5 µM; with `Cc1noc(C)c1Cc1ccc(C(=O)Nc2cccc(CN)c2)o1`, greater than 99.5 µM.
With `CN1CCC(COc2ccc([C@@H](NC(=O)OCc3ccccc3)C(=O)Nc3cccc(CN)c3)cc2)CC1` the figure was 82.3 µM; with `NCc1cccc(NC(=O)c2nn(-c3ccc(Cl)c(F)c3)c3c2CCC3)c1`, 36.9 µM; with `CCC[C@H](Oc1ccc(Cl)cc1C)C(=O)Nc1cccc(CN)c1`, greater than 99.5 µM.
In the case of `CCCN(C)CC(=O)N1CCC([C@@H](NC(=O)OCc2ccccc2)C(=O)Nc2cccc(CN)c2)CC1` it was greater than 99.5 µM.
